Results published in ChEMBL document CHEMBL1123428, “In vitro labeling of serotonin-S2 receptors: synthesis and binding characteristics of [3H]-7-aminoketanserin” (J Med Chem, 1986).

Key:
[1] = species: Rattus norvegicus; assay: Compound was evaluated for its activity at solubilized receptor (CHAPS/salt-solubilized preparation) from rat frontal cortex; format: functional, organism-based; conditions: for IC50: Rattus norvegicus, Frontal cortex
[2] = species: Rattus norvegicus; assay: Compound was evaluated for its activity at membrane-bound receptor (M+L+P fraction) from rat frontal cortex; format: functional, organism-based; conditions: for IC50: Rattus norvegicus, Frontal cortex

## (-)-BUTACLAMOL
[1]
  -Log IC50: 4.56
  Ki: 13800 nM
[2]
  -Log IC50: 4.9
  Ki: 3260 nM

## COc1cc2nc(N3CCN(C(=O)c4ccco4)CC3)nc(N)c2cc1OC [PRAZOSIN]
[1]
  Ki: 19900 nM
  IC50: 39800 nM
[2]
  Ki: 11600 nM
  IC50: 44700 nM

## CN1CCN2c3ccccc3Cc3ccccc3C2C1 (centres undefined) [MIANSERIN]
[1]
  Ki: 13.5 nM
  IC50: 26.9 nM
[2]
  Ki: 3.04 nM
  IC50: 11.7 nM

## O=C(c1ccc(F)cc1)C1CCN(CCn2c(=O)[nH]c3ccccc3c2=O)CC1 [KETANSERIN]
[1]
  Ki: 3.97 nM
  IC50: 7.94 nM
[2]
  Ki: 0.68 nM
  IC50: 2.63 nM

## O=c1[nH]c2ccccc2n1CCCN1CCC(n2c(=O)[nH]c3cc(Cl)ccc32)CC1 [DOMPERIDONE]
[1]
  Ki: 998 nM
  IC50: 2000 nM
[2]
  Ki: 152 nM
  IC50: 589 nM

## Cc1nc2ccccn2c(=O)c1CCN1CCC(C(=O)c2ccc(F)cc2)CC1 [PIRENPERONE]
[1]
  Ki: 3.54 nM
  IC50: 7.08 nM
[2]
  Ki: 0.47 nM
  IC50: 1.82 nM
